Laboratory results reported in PubChem BioAssay (NCI).
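96-well plates; 48 h exposure; 5 concentrations. Endpoints by linear interpolation between flanking doses. Not reached: highest tested concentration assigned. GI50 is the concentration that inhibits growth by half. Definition used: TGI = concentration required for complete inhibition of growth.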

How the values were obtained:
Assay in all cases: DTP human tumour cell line panel, 48 h
OVCAR-8 ovarian = system: OVCAR-8 ovarian
M14 melanoma = system: M14 melanoma
COLO 205 colon = system: COLO 205 colon
A498 renal = system: A498 renal
NCI-H460 lung = system: NCI-H460 lung
RPMI-8226 leukemia = system: RPMI-8226 leukemia
UACC-257 melanoma = system: UACC-257 melanoma
HCC-2998 colon = system: HCC-2998 colon
HL-60(TB) leukemia = system: HL-60(TB) leukemia
786-0 renal = system: 786-0 renal
HS 578T breast = system: HS 578T breast
OVCAR-4 ovarian = system: OVCAR-4 ovarian
CAKI-1 renal = system: CAKI-1 renal
SNB-19 CNS = system: SNB-19 CNS
NCI-H522 lung = system: NCI-H522 lung
HOP-92 NSCLC = system: HOP-92 NSCLC
SK-MEL-28 melanoma = system: SK-MEL-28 melanoma
SF-268 CNS = system: SF-268 CNS
MDA-MB-435 = system: MDA-MB-435
NCI/ADR-RES ovarian = system: NCI/ADR-RES ovarian
HCT-15 colon = system: HCT-15 colon
MALME-3M melanoma = system: MALME-3M melanoma
HCT-116 colon = system: HCT-116 colon
SF-295 CNS = system: SF-295 CNS
TK-10 renal = system: TK-10 renal
OVCAR-3 ovarian = system: OVCAR-3 ovarian
U251 CNS = system: U251 CNS
RXF 393 renal = system: RXF 393 renal
BT-549 breast = system: BT-549 breast
DU-145 prostate = system: DU-145 prostate
T-47D breast = system: T-47D breast
K-562 leukemia = system: K-562 leukemia
MOLT-4 leukemia = system: MOLT-4 leukemia
SK-OV-3 ovarian = system: SK-OV-3 ovarian
HOP-62 NSCLC = system: HOP-62 NSCLC
PC-3 prostate = system: PC-3 prostate
HT29 colon = system: HT29 colon
NCI-H23 lung = system: NCI-H23 lung
SK-MEL-2 melanoma = system: SK-MEL-2 melanoma
KM12 colon = system: KM12 colon
ACHN renal = system: ACHN renal
NCI-H226 lung = system: NCI-H226 lung
SW-620 colon = system: SW-620 colon
UO-31 renal = system: UO-31 renal
EKVX NSCLC = system: EKVX NSCLC
OVCAR-5 ovarian = system: OVCAR-5 ovarian
SK-MEL-5 melanoma = system: SK-MEL-5 melanoma
SR leukemia = system: SR leukemia
MDA-MB-231 breast = system: MDA-MB-231 breast
MCF7 breast = system: MCF7 breast
SN12C renal = system: SN12C renal
LOX IMVI melanoma = system: LOX IMVI melanoma
A549 NSCLC = system: A549 NSCLC
SNB-75 CNS = system: SNB-75 CNS
SF-539 CNS = system: SF-539 CNS
IGROV1 ovarian = system: IGROV1 ovarian
CCRF-CEM leukemia = system: CCRF-CEM leukemia
UACC-62 melanoma = system: UACC-62 melanoma

CN1CCN(Cc2ccc(NC(=O)c3[nH]ncc3Nc3cc(OC4CCCC4)ncn3)cc2)CC1
GI50 (OVCAR-8 ovarian): 4.95 µM
TGI (OVCAR-8 ovarian): 26.9 µM
GI50 (M14 melanoma): 1.35 µM
TGI (M14 melanoma): 3.62 µM
GI50 (COLO 205 colon): 1.24 µM
TGI (COLO 205 colon): 3.11 µM
GI50 (A498 renal): 6.37 µM
TGI (A498 renal): 19.4 µM
GI50 (NCI-H460 lung): 1.61 µM
TGI (NCI-H460 lung): 5.97 µM
GI50 (RPMI-8226 leukemia): 2.94 µM
TGI (RPMI-8226 leukemia): 6.71 µM
GI50 (UACC-257 melanoma): 3.42 µM
TGI (UACC-257 melanoma): 9.6 µM
GI50 (HCC-2998 colon): 3.1 µM
TGI (HCC-2998 colon): 10.5 µM
GI50 (HL-60(TB) leukemia): 1.77 µM
TGI (HL-60(TB) leukemia): 4.3 µM
GI50 (786-0 renal): 1.35 µM
TGI (786-0 renal): 3.1 µM
GI50 (HS 578T breast): 2.2 µM
TGI (HS 578T breast): 30 µM
GI50 (OVCAR-4 ovarian): 2.07 µM
TGI (OVCAR-4 ovarian): 7.18 µM
GI50 (CAKI-1 renal): 0.366 µM
TGI (CAKI-1 renal): 9.11 µM
GI50 (SNB-19 CNS): 4.74 µM
TGI (SNB-19 CNS): 15.7 µM
GI50 (NCI-H522 lung): 2.15 µM
TGI (NCI-H522 lung): 7.91 µM
GI50 (HOP-92 NSCLC): 6.69 µM
TGI (HOP-92 NSCLC): 18.6 µM
GI50 (SK-MEL-28 melanoma): 1.78 µM
TGI (SK-MEL-28 melanoma): 3.87 µM
GI50 (SF-268 CNS): 4.48 µM
TGI (SF-268 CNS): 19 µM
GI50 (MDA-MB-435): 1.84 µM
TGI (MDA-MB-435): 8.32 µM
GI50 (NCI/ADR-RES ovarian): 3.68 µM
TGI (NCI/ADR-RES ovarian): 15 µM
GI50 (HCT-15 colon): 1.24 µM
TGI (HCT-15 colon): 11 µM
GI50 (MALME-3M melanoma): 2.05 µM
TGI (MALME-3M melanoma): 5.43 µM
GI50 (HCT-116 colon): 0.755 µM
TGI (HCT-116 colon): 11 µM
GI50 (SF-295 CNS): 2.93 µM
TGI (SF-295 CNS): 12.5 µM
GI50 (TK-10 renal): 11 µM
TGI (TK-10 renal): 23.7 µM
GI50 (OVCAR-3 ovarian): 1.77 µM
TGI (OVCAR-3 ovarian): 3.69 µM
GI50 (U251 CNS): 3.38 µM
TGI (U251 CNS): 12.7 µM
GI50 (RXF 393 renal): 1.36 µM
TGI (RXF 393 renal): 2.91 µM
GI50 (BT-549 breast): 1.75 µM
TGI (BT-549 breast): 3.97 µM
GI50 (DU-145 prostate): 2.35 µM
TGI (DU-145 prostate): 12.9 µM
GI50 (T-47D breast): 5.06 µM
TGI (T-47D breast): 21.5 µM
GI50 (K-562 leukemia): 1.64 µM
TGI (K-562 leukemia): 13.3 µM
GI50 (MOLT-4 leukemia): 2.16 µM
TGI (MOLT-4 leukemia): 8.66 µM
GI50 (SK-OV-3 ovarian): 1.28 µM
TGI (SK-OV-3 ovarian): 4.36 µM
GI50 (HOP-62 NSCLC): 3.7 µM
TGI (HOP-62 NSCLC): 13.2 µM
GI50 (PC-3 prostate): 2.26 µM
TGI (PC-3 prostate): 11.1 µM
GI50 (HT29 colon): 2.53 µM
TGI (HT29 colon): 8.53 µM
GI50 (NCI-H23 lung): 3.07 µM
TGI (NCI-H23 lung): 14.4 µM
GI50 (SK-MEL-2 melanoma): 3.75 µM
TGI (SK-MEL-2 melanoma): 15.3 µM
GI50 (KM12 colon): 2.18 µM
TGI (KM12 colon): 6.19 µM
GI50 (ACHN renal): 1.09 µM
TGI (ACHN renal): 3.1 µM
GI50 (NCI-H226 lung): 2.98 µM
TGI (NCI-H226 lung): 10.8 µM
GI50 (SW-620 colon): 2.66 µM
TGI (SW-620 colon): 7.25 µM
GI50 (UO-31 renal): 1.4 µM
TGI (UO-31 renal): 11.2 µM
GI50 (EKVX NSCLC): 3.86 µM
TGI (EKVX NSCLC): 18.6 µM
GI50 (OVCAR-5 ovarian): 2.79 µM
TGI (OVCAR-5 ovarian): 7.12 µM
GI50 (SK-MEL-5 melanoma): 1.44 µM
TGI (SK-MEL-5 melanoma): 4.07 µM
GI50 (SR leukemia): 1.03 µM
TGI (SR leukemia): 6.1 µM
GI50 (MDA-MB-231 breast): 2.64 µM
TGI (MDA-MB-231 breast): 7.46 µM
GI50 (MCF7 breast): 1.59 µM
TGI (MCF7 breast): 4.96 µM
GI50 (SN12C renal): 3.37 µM
TGI (SN12C renal): 13.8 µM
GI50 (LOX IMVI melanoma): 1.63 µM
TGI (LOX IMVI melanoma): 3.83 µM
GI50 (A549 NSCLC): 2.11 µM
TGI (A549 NSCLC): 10.5 µM
GI50 (SNB-75 CNS): 3.53 µM
TGI (SNB-75 CNS): 16.4 µM
GI50 (SF-539 CNS): 1.9 µM
TGI (SF-539 CNS): 5.02 µM
GI50 (IGROV1 ovarian): 1.75 µM
TGI (IGROV1 ovarian): 10.8 µM
GI50 (CCRF-CEM leukemia): 2.39 µM
TGI (CCRF-CEM leukemia): 11.2 µM
GI50 (UACC-62 melanoma): 3.44 µM
TGI (UACC-62 melanoma): 11.1 µM
